The term ΔTm denotes the shift of the melting midpoint relative to a reference.

Each structure is given as a SMILES string.

In this assay the target is T1, Wis1 (Schizosaccharomyces pombe, UniProt P33886).
T1 construct: full length, N-terminal HA3 tag (JJS6, thermal shift) or N-terminal HA and C-terminal His6 tags (JJS7, kinase assay); nmt1 promoter at the chromosomal locus; expressed in S. pombe
T1 sequence (P33886 1-605): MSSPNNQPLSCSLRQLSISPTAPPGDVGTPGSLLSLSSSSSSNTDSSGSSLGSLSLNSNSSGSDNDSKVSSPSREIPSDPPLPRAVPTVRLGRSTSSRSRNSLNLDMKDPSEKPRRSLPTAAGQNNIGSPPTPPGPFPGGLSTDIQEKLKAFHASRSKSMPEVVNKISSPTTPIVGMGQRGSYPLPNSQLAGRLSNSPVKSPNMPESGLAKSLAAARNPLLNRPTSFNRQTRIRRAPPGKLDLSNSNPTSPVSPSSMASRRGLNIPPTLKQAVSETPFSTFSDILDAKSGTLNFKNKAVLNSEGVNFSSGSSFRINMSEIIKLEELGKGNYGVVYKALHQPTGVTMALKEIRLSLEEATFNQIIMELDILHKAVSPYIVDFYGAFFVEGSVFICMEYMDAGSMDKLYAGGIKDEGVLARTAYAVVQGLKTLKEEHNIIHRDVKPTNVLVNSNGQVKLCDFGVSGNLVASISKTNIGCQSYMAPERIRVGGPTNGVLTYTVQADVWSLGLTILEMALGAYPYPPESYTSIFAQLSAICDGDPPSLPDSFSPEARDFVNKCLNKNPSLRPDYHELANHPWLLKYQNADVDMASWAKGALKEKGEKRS
The experiment in a line: thermal shift in crude lysate, Western blot of soluble HA-Wis1. It counts as biochemical. Background: Immunoblotting shows a protein as a band on a membrane.

Take `CCOc1cccc(-c2cc(=O)c3ccccc3o2)c1N` [INR119]: the ΔTm at 3 µM amounted to 2 °C.

(Values after publication PMC7076255, “A Redox-Sensitive Thiol in Wis1 Modulates the Fission Yeast Mitogen-Activated Protein Kinase Response to H2O2 and Is the Target of a Small Molecule” (Molecular and Cellular Biology, 2020).)
